# How the values were obtained:
# Type in all cases: physicochemical
# [1] = Visual observation at 0° C. after 7 days (test CIPAC MT39); details: 10% Alkamuls RC, remainder the solvent, 7 days at 0° C.
# Experimental: (§1) By mixing the ingredients, formulations of various phytosanitary active ingredients of the type emulsifiable concentrate type (EC) are prepared. […] The following tests are conducted: Visual observation at 0° C.—The formulation is placed for 7 days at 0° C. and the aspect of the formulation is noted and the presence of crystals is optionally located (test CIPAC MT39)
# [2] = Visual observation at 25° C. of EC formulation (aspect, presence of crystals); details: 10% Alkamuls RC, remainder the solvent
# Experimental: as §1, with “25°” for “0°”, “C.—The” for “C.—The formulation is placed for 7 days at 0° C. and the”, “located” for “located (test CIPAC MT39)”
# [3] = Visual observation at 0° C. with nucleation (crystal of active material introduced, again 7 days at 0° C.); details: 10% Alkamuls RC, remainder the solvent, seeded with crystal, further 7 days at 0° C.
# Experimental: By mixing the ingredients, formulations of various phytosanitary active ingredients of the type emulsifiable concentrate type (EC) are prepared. The formulations comprise: […]
# 10% by weight of the surfactant Alkamuls® RC, marketed by Rhodia
# and, as a solvent, the remainder of the compound of the examples.
# The following tests are conducted:
# Visual observation at 0° C. with nucleation: A crystal of active material is introduced into the formulation having spent 7 days at 0° C. formulation, and the formulation is again placed for 7 days at 0° C. The aspect of the formulation is noted and the presence of crystals is optionally located.
# [4] = EC formulation: Azoxystrobin 25% by weight
# [5] = EC formulation: Difenconazole 25% by weight
# [6] = EC formulation: Dimethoate 40% by weight
# [7] = EC formulation: Oxyfluorfen 22% by weight
# [8] = EC formulation: Phenmedipham 16% by weight
# [9] = EC formulation: Propanil 36% by weight
# [10] = EC formulation: Propoxur 20% by weight
# [11] = EC formulation: Tebuconazole 25% by weight
# [12] = EC formulation: Trifluralin 40% by weight
compound,measurement,setting,value
CCOCCCC(=O)N(C)C [Compound 4],Aspect at 0° C.,[1]; [4],Crystals
same,Aspect at 0° C.,[1]; [5],Limpid
same,Aspect at 0° C.,[1]; [6],Limpid
same,Aspect at 0° C.,[1]; [7],Cloudy
same,Aspect at 0° C.,[1]; [8],Limpid
same,Aspect at 0° C.,[1]; [9],Limpid
same,Aspect at 0° C.,[1]; [10],Limpid
same,Aspect at 0° C.,[1]; [11],Limpid
same,Aspect at 0° C.,[1]; [12],Limpid
same,Aspect at 25° C.,[2]; [4],Crystals
same,Aspect at 25° C.,[2]; [5],Limpid
same,Aspect at 25° C.,[2]; [6],Limpid
same,Aspect at 25° C.,[2]; [7],Cloudy
same,Aspect at 25° C.,[2]; [8],Limpid
same,Aspect at 25° C.,[2]; [9],Limpid
same,Aspect at 25° C.,[2]; [10],Limpid
same,Aspect at 25° C.,[2]; [11],Limpid
same,Aspect at 25° C.,[2]; [12],Limpid
same,Aspect at 0° C. with nucleation,[3]; [4],Crystals
same,Aspect at 0° C. with nucleation,[3]; [5],Limpid
same,Aspect at 0° C. with nucleation,[3]; [6],Limpid
same,Aspect at 0° C. with nucleation,[3]; [7],Cloudy
same,Aspect at 0° C. with nucleation,[3]; [8],Limpid
same,Aspect at 0° C. with nucleation,[3]; [9],Limpid
same,Aspect at 0° C. with nucleation,[3]; [10],Limpid
same,Aspect at 0° C. with nucleation,[3]; [11],Limpid
same,Aspect at 0° C. with nucleation,[3]; [12],Crystals

# — patent US20150208645A1, “PHYTOSANITARY COMPOSITIONS COMPRISING AN ETHER-AMIDE COMPOUND” (priority 2012, published 2015)
